According to paper PMC9011347, “Small-Molecule Inhibitors Targeting Lipolysis in Human Adipocytes” (Journal of the American Chemical Society, 2022):

Columns and labels:
[1] = biological target: T1, c9 (mouse ATGL with humanized T101, C106, R109, N111, S133) (Mus musculus, UniProt Q8BJ56, C106S/N111S/R109H/S133N/T101V); experiment: TAG hydrolase assay, chimeric ATGL variants; assay type: biochemical, human and mouse; details: variant c9, NG-497 (10 μM) or Atglistatin (10 μM)
T1 construct: host or cells: Expi293 cells, cell lysate
Experimental: (§1) Figure 5 Analysis of chimeric proteins comprising human and mouse ATGL. (a) Schematic view of the minimal active domain of wild-type and chimeric ATGL variants (c1–c9). Nonidentical aa are indicated in blue and red for mouse and human ATGL, respectively. ATGL variants were expressed in Expi293 cells and TAG hydrolase activity was determined in cell lysates in the presence or absence of NG-497 (10 μM) and Atglistatin (10 μM), respectively. Inhibition of ATGL variants by respective inhibitors (tick mark) and lack of inhibition (cross) is indicated at the right edge. The expression of all ATGL variants was confirmed by Western blotting analysis (Figure S6). (b) Dose-dependent inhibition of human ATGL (aa 1–288) and c1 (human aa 1–158 and mouse aa 159–288) by NG-497. (c) Dose-dependent inhibition of mouse ATGL (aa 1–288) and c2 (mouse aa 1–158 and human aa 159–288) by Ai. IC50 values are shown in the insets. Data are presented as relative inhibition of respective DMSO controls and are indicated as mean ± SD. (d) 3D homology model of the minimal active domain of mouse ATGL (M1–L254) depicted as a cartoon. Residues 1–178 are in blue, and residues 179–254 are in gray. […]
Expression of recombinant ATGL constructs and preparation of cell lysates. […] Protein concentrations were determined using Bio-Rad protein assay (Bio-Rad 785, Bio-Rad Laboratories, Munich, Germany) using BSA as standard. […]

[2] = biological target: T2, mouse ATGL I69F (Mus musculus, UniProt Q8BJ56, I69F); experiment: TAG hydrolase assay, humanized mouse ATGL variants; assay type: biochemical; details: variant I69F, NG-497 (10 μM) or Atglistatin (10 μM)
T2 construct: host or cells: Expi293 cells, cell lysate
Experimental: as §1, with “gray. S47 and D166 comprising the active site are represented as green sticks. T101, C106, R109, N111, and S133 are colored in orange, A60, N68, I69, T93, C97, and T146 are colored in magenta. TEXT PRINTED IN THE PICTURE: (b) NG-497: IC50 [μM] (human): 1.3±0.1; IC50 [μM] (c1): 1.3±0.1 | (b) Ai: IC50 [μM] (human): n.det.; IC50 [μM] (c1): n.det. | (c) NG-497: IC50 [μM] (mouse): n.det.; IC50 [μM] (c2): n.det. | (c) Ai: IC50 [μM] (mouse): 2.5±0.3; IC50 [μM] (c2): 2.4±0.1” for “gray.”
(§2) The region between aa 60 and 146 of human and mouse ATGL comprises 12 nonidentical aa. We generated 3D homology models for the minimal active domain of mouse ATGL to obtain more detailed insight into the topology of the relevant region (Figure 5d). Based on this model, aa T101, C106, R109, N111, and S133 locate at peripheral (loop) regions (indicated in orange, Figure 5d). […] For all other nonidentical aa (indicated in magenta, Figure 5d), we generated variants with single aa substitutions. The humanized variants A60V, N68K, T93I, and C97F were inactivated by Ai but not NG-497 (Figure 5a).
(§3) Experimental details, materials, and methods
(§4) Expression of recombinant ATGL constructs and preparation of cell lysates. Expi293 cells were cultivated in Expi293 Expression Medium (GIBCO, Thermo Fisher Scientific, Waltham, USA) at standard conditions (37°C, 5% CO2, 95% humidified atmosphere, 125 rpm). DNA constructs containing ATGL from different species and chimeric ATGL variants in pcDNA3.1(+)myc-His C Vector were obtained from BioCat GmbH (Heidelberg, Germany). Cells were transfected with ExpiFectamine293 Transfection Kit (GIBCO) in Opti-Mem reduced serum medium (GIBCO) according to the manufacturer’s instructions. After 48 h, cells were harvested by centrifugation and washed three times with PBS. Cells were disrupted in buffer A (0.25 M sucrose, 1 mM EDTA, 1 mM dithiothreitol, 20µg/ml leupeptin, 2 µg/ml antipain, 1 µg/ml pepstatin, pH 7.0) by sonication (Virsonic 475, Virtis, Gardiner, USA). Nuclei and debris were removed by centrifugation at 1,000 g and 4°C for 10 min. Protein concentrations were determined using Bio-Rad protein assay (Bio-Rad 785, Bio-Rad Laboratories, Munich, Germany) using BSA as standard.
(§5) Expression and purification of mouse CGI-58. CGI-58 was expressed and purified as described 1. In brief, the coding sequence of mouse Cgi-58 was cloned into pHis-Sumo and co-transformed with the plasmid pTf16 expressing the chaperone Tig into E. coli BL21(DE3). Cells were cultured overnight at 37°C and 180 rpm in the presence of 40 µg/ml kanamycin and 34 µg/ml chloramphenicol. Thereafter, cells were transferred into fresh LB medium, grown until OD600 of 0.6, and expression was induced by the addition of 0.5 mM IPTG. After overnight incubation at 30°C, cells were harvested at 4,500 x g and 4°C for 20 min, […]

[3] = biological target: T3, mouse ATGL T146G (Mus musculus, UniProt Q8BJ56, T146G); experiment: TAG hydrolase assay, humanized mouse ATGL variants; assay type: biochemical; details: variant T146G, NG-497 (10 μM) or Atglistatin (10 μM)
T3 construct: host or cells: Expi293 cells, cell lysate
Experimental: as §1, with “gray. S47 and D166 comprising the active site are represented as green sticks. T101, C106, R109, N111, and S133 are colored in orange, A60, N68, I69, T93, C97, and T146 are colored in magenta. TEXT PRINTED IN THE PICTURE: (b) NG-497: IC50 [μM] (human): 1.3±0.1; IC50 [μM] (c1): 1.3±0.1 | (b) Ai: IC50 [μM] (human): n.det.; IC50 [μM] (c1): n.det. | (c) NG-497: IC50 [μM] (mouse): n.det.; IC50 [μM] (c2): n.det. | (c) Ai: IC50 [μM] (mouse): 2.5±0.3; IC50 [μM] (c2): 2.4±0.1” for “gray.”
as §2, §3, §4, §5

T1 sequence (Q8BJ56 1-288 T101V/C106S/R109H/N111S/S133N limits assumed): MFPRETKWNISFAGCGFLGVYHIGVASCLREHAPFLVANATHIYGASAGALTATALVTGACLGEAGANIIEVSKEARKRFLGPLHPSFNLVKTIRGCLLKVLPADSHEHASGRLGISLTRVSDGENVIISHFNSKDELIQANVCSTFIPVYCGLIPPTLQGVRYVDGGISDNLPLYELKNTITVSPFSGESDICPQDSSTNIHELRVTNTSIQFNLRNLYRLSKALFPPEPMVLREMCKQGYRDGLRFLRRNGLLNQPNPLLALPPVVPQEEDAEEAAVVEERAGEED
T2 sequence (Q8BJ56 whole entry I69F): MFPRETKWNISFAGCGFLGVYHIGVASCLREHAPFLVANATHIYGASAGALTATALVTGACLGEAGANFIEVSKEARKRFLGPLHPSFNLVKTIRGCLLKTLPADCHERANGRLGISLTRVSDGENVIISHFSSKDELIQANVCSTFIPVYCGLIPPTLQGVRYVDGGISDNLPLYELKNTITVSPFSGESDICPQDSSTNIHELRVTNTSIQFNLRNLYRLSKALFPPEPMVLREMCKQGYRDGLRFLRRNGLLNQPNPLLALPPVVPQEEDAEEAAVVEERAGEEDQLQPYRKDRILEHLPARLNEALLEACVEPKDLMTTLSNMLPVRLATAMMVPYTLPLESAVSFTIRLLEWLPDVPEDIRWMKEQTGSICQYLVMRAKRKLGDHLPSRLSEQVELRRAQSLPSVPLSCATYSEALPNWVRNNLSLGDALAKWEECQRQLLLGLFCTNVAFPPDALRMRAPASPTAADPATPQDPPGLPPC
T3 sequence (Q8BJ56 whole entry T146G): as the sequence (Q8BJ56 whole entry I69F) above, with F69I, T146G counted along it

`CN(C)C(=O)Nc1cccc(-c2ccc(N(C)C)cc2)c1` [Atglistatin, reference compound] was tested, and the “inhibition of TAG hydrolase activity” value [1] was “preserved Ai binding”, the “inhibition of TAG hydrolase activity” value [2] was “neither inhibited” and the “inhibition of TAG hydrolase activity” value [3] was “neither inhibited”.

For `CCOc1ccc(-c2cc(OC)cc(C(=O)OC(C)C)n2)cc1` [NG-497], the “inhibition of TAG hydrolase activity” value [1] was “ineffective”, the “inhibition of TAG hydrolase activity” value [2] was “neither inhibited” and the “inhibition of TAG hydrolase activity” value [3] was “neither inhibited”.
